Experimental data from the NIST ThermoML archive (doi:10.1016/j.fluid.2011.12.029).

Conditions: Liquid, Vibrating tube method

CCC[n+]1ccccc1Oc1ccc(Cl)c[n+]1CCOS(=O)(=O)[O-].F[B-](F)(F)F
Conditions | mass density [kg/m3]
283.15 K, 100 kPa | 1264.92
283.15 K, 5000 kPa | 1266.85
283.15 K, 10000 kPa | 1269.01
283.15 K, 15000 kPa | 1270.98
283.15 K, 20000 kPa | 1273.05
283.15 K, 25000 kPa | 1274.97
283.15 K, 30000 kPa | 1276.87
283.15 K, 35000 kPa | 1278.73
283.15 K, 40000 kPa | 1280.58
283.15 K, 45000 kPa | 1282.38
283.15 K, 50000 kPa | 1284.12
283.15 K, 55000 kPa | 1285.76
283.15 K, 60000 kPa | 1287.38
283.15 K, 65000 kPa | 1289.03
288.15 K, 100 kPa | 1260.92
288.15 K, 5000 kPa | 1262.99
288.15 K, 10000 kPa | 1265.09
288.15 K, 15000 kPa | 1267.22
288.15 K, 20000 kPa | 1269.26
288.15 K, 25000 kPa | 1271.11
288.15 K, 30000 kPa | 1273.09
288.15 K, 35000 kPa | 1275.02
288.15 K, 40000 kPa | 1276.87
288.15 K, 45000 kPa | 1278.72
288.15 K, 50000 kPa | 1280.38
288.15 K, 55000 kPa | 1282.18
288.15 K, 60000 kPa | 1283.78
288.15 K, 65000 kPa | 1285.51
293.15 K, 100 kPa | 1257.14
293.15 K, 5000 kPa | 1259.28
293.15 K, 10000 kPa | 1261.4
293.15 K, 15000 kPa | 1263.43
293.15 K, 20000 kPa | 1265.5
293.15 K, 25000 kPa | 1267.47
293.15 K, 30000 kPa | 1269.5
293.15 K, 35000 kPa | 1271.32
293.15 K, 40000 kPa | 1273.23
293.15 K, 45000 kPa | 1275.01
293.15 K, 50000 kPa | 1276.8
293.15 K, 55000 kPa | 1278.62
293.15 K, 60000 kPa | 1280.22
293.15 K, 65000 kPa | 1281.96
298.15 K, 100 kPa | 1253.37
298.15 K, 5000 kPa | 1255.54
298.15 K, 10000 kPa | 1257.73
298.15 K, 15000 kPa | 1259.9
298.15 K, 20000 kPa | 1262.01
298.15 K, 25000 kPa | 1263.98
298.15 K, 30000 kPa | 1265.98
298.15 K, 35000 kPa | 1267.9
298.15 K, 40000 kPa | 1269.81
298.15 K, 45000 kPa | 1271.6
298.15 K, 50000 kPa | 1273.47
298.15 K, 55000 kPa | 1275.21
298.15 K, 60000 kPa | 1276.93
298.15 K, 65000 kPa | 1278.65
303.15 K, 100 kPa | 1249.77
303.15 K, 5000 kPa | 1252.02
303.15 K, 10000 kPa | 1254.17
303.15 K, 15000 kPa | 1256.38
303.15 K, 20000 kPa | 1258.37
303.15 K, 25000 kPa | 1260.46
303.15 K, 30000 kPa | 1262.48
303.15 K, 35000 kPa | 1264.47
303.15 K, 40000 kPa | 1266.35
303.15 K, 45000 kPa | 1268.13
303.15 K, 50000 kPa | 1269.94
303.15 K, 55000 kPa | 1271.81
303.15 K, 60000 kPa | 1273.55
303.15 K, 65000 kPa | 1275.21
308.15 K, 100 kPa | 1246.14
308.15 K, 5000 kPa | 1248.19
308.15 K, 10000 kPa | 1250.57
308.15 K, 15000 kPa | 1252.6
308.15 K, 20000 kPa | 1254.8
308.15 K, 25000 kPa | 1256.85
308.15 K, 30000 kPa | 1258.87
308.15 K, 35000 kPa | 1260.93
308.15 K, 40000 kPa | 1262.88
308.15 K, 45000 kPa | 1264.72
308.15 K, 50000 kPa | 1266.61
308.15 K, 55000 kPa | 1268.36
308.15 K, 60000 kPa | 1270.11
308.15 K, 65000 kPa | 1271.84
313.15 K, 100 kPa | 1242.44
313.15 K, 5000 kPa | 1244.75
313.15 K, 10000 kPa | 1247.02
313.15 K, 15000 kPa | 1249.22
313.15 K, 20000 kPa | 1251.35
313.15 K, 25000 kPa | 1253.46
313.15 K, 30000 kPa | 1255.5
313.15 K, 35000 kPa | 1257.51
313.15 K, 40000 kPa | 1259.52
313.15 K, 45000 kPa | 1261.48
313.15 K, 50000 kPa | 1263.42
313.15 K, 55000 kPa | 1265.2
313.15 K, 60000 kPa | 1267
313.15 K, 65000 kPa | 1268.66
318.15 K, 100 kPa | 1238.82
318.15 K, 5000 kPa | 1241.01
318.15 K, 10000 kPa | 1243.39
318.15 K, 15000 kPa | 1245.52
318.15 K, 20000 kPa | 1247.69
318.15 K, 25000 kPa | 1249.81
318.15 K, 30000 kPa | 1251.93
318.15 K, 35000 kPa | 1253.97
318.15 K, 40000 kPa | 1255.96
318.15 K, 45000 kPa | 1257.93
318.15 K, 50000 kPa | 1259.75
318.15 K, 55000 kPa | 1261.48
318.15 K, 60000 kPa | 1263.53
318.15 K, 65000 kPa | 1265.2
323.15 K, 100 kPa | 1235.3
323.15 K, 5000 kPa | 1237.63
323.15 K, 10000 kPa | 1239.98
323.15 K, 15000 kPa | 1242.24
323.15 K, 20000 kPa | 1244.44
323.15 K, 25000 kPa | 1246.62
323.15 K, 30000 kPa | 1248.63
323.15 K, 35000 kPa | 1250.7
323.15 K, 40000 kPa | 1252.76
323.15 K, 45000 kPa | 1254.69
323.15 K, 50000 kPa | 1256.63
323.15 K, 55000 kPa | 1258.52
323.15 K, 60000 kPa | 1260.31
323.15 K, 65000 kPa | 1262.15
328.15 K, 100 kPa | 1231.68
328.15 K, 5000 kPa | 1233.97
328.15 K, 10000 kPa | 1236.25
328.15 K, 15000 kPa | 1238.61
328.15 K, 20000 kPa | 1240.87
328.15 K, 25000 kPa | 1243.01
328.15 K, 30000 kPa | 1245.19
328.15 K, 35000 kPa | 1247.33
328.15 K, 40000 kPa | 1249.3
328.15 K, 45000 kPa | 1251.23
328.15 K, 50000 kPa | 1253.26
328.15 K, 55000 kPa | 1255.02
328.15 K, 60000 kPa | 1256.98
328.15 K, 65000 kPa | 1258.79
333.15 K, 100 kPa | 1228.25
333.15 K, 5000 kPa | 1230.56
333.15 K, 10000 kPa | 1232.96
333.15 K, 15000 kPa | 1235.23
333.15 K, 20000 kPa | 1237.65
333.15 K, 25000 kPa | 1239.91
333.15 K, 30000 kPa | 1241.9
333.15 K, 35000 kPa | 1244.07
333.15 K, 40000 kPa | 1246.16
333.15 K, 45000 kPa | 1248.15
333.15 K, 50000 kPa | 1250.14
333.15 K, 55000 kPa | 1252
333.15 K, 60000 kPa | 1253.93
333.15 K, 65000 kPa | 1255.7
